Results as given in ChEMBL document CHEMBL1201862, “PubChem BioAssay data set” (2004).
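Step 1: Grow cells in 96-well plates. Step 2: Expose to compound for 48 hours at 5 concentrations. Step 3: Interpolate endpoints linearly; if unreached, use highest concentration. GI50 is the concentration that inhibits growth by half.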 The source made the active and inactive calls. No stated cut-off is given here; in the data, active = GI50 up to about 1.1 µM and inactive = higher.

Tests used:
Assay in all cases: inhibition of tumour cell growth, NCI panel, 48 h
A498 = test system: A498
BT-549 = test system: BT-549
EKVX = test system: EKVX
HL-60 = test system: HL-60
LOX IMVI = test system: LOX IMVI
NCI-H23 = test system: NCI-H23
NCI-H460 = test system: NCI-H460
OVCAR-3 = test system: OVCAR-3
SF-295 = test system: SF-295
SK-MEL-28 = test system: SK-MEL-28
SK-MEL-2 = test system: SK-MEL-2
SN12C = test system: SN12C
SNB-19 = test system: SNB-19
SR = test system: SR
T47D = test system: T47D
TK-10 = test system: TK-10
UACC-62 = test system: UACC-62
COLO 205 = test system: COLO 205
Hs-578T = test system: Hs-578T

Row | Structure (SMILES) | GI50 (A498) | GI50 (BT-549) | GI50 (EKVX) | GI50 (HL-60) | GI50 (LOX IMVI) | GI50 (NCI-H23) | GI50 (NCI-H460) | GI50 (OVCAR-3) | GI50 (SF-295) | GI50 (SK-MEL-28) | GI50 (SK-MEL-2) | GI50 (SN12C) | GI50 (SNB-19) | GI50 (SR) | GI50 (T47D) | GI50 (TK-10) | GI50 (UACC-62) | GI50 (COLO 205) | GI50 (Hs-578T)
1 | O=C(O)C(O)(c1ccc(-c2ccccc2)cc1)c1ccc(-c2ccccc2)cc1 | 23.3 µM (inactive) | 20.5 µM (inactive) | 24.3 µM (inactive) | 21.5 µM (inactive) | 17.9 µM (inactive) | 18.9 µM (inactive) | 20.4 µM (inactive) | 15 µM (inactive) | 34 µM (inactive) | 35.3 µM (inactive) | 14.1 µM (inactive) | 22 µM (inactive) | 49.4 µM (inactive) | 47.5 µM (inactive) | 41.6 µM (inactive) | 37.6 µM (inactive) | 18.1 µM (inactive) | – | –
2 | CC(C)=NNc1snnc1C(N)=O | > 100 µM (inactive) | > 100 µM (inactive) | > 100 µM (inactive) | > 100 µM (inactive) | > 100 µM (inactive) | > 100 µM (inactive) | – | > 100 µM (inactive) | > 100 µM (inactive) | > 100 µM (inactive) | > 100 µM (inactive) | > 100 µM (inactive) | > 100 µM (inactive) | – | > 100 µM (inactive) | > 100 µM (inactive) | > 100 µM (inactive) | > 100 µM (inactive) | > 100 µM (inactive)
3 | CC1=C[C@H](O)[C@@]2(C)[C@@H]([C@@H]1C)[C@H]1CC[C@@H]3[C@@]4(C)CC[C@H](O)C(C)(C)[C@@H]4CC[C@@]3(C)[C@]1(C)C[C@@H]2O | – | 23.9 µM (inactive) | 12.4 µM (inactive) | – | 21.5 µM (inactive) | 23.1 µM (inactive) | 18.9 µM (inactive) | 16.8 µM (inactive) | 16.1 µM (inactive) | 18.3 µM (inactive) | 23.3 µM (inactive) | 15.2 µM (inactive) | 15.8 µM (inactive) | – | 14.3 µM (inactive) | 22.2 µM (inactive) | 18.8 µM (inactive) | 16.6 µM (inactive) | 22.3 µM (inactive)
4 | COc1cc([C@@H]2c3cc4c(cc3[C@H](OC3OC5COC(c6ccco6)OC5C(O)C3O)C3COC(=O)[C@@H]32)OCO4)cc(OC)c1OC (some centres undefined) | 2.29 µM (inactive) | 3.21 µM (inactive) | – | 4.05 µM (inactive) | 4.06 µM (inactive) | 3.56 µM (inactive) | 2.16 µM (inactive) | 3.21 µM (inactive) | 3.67 µM (inactive) | – | 9.31 µM (inactive) | – | 3.9 µM (inactive) | – | 13.4 µM (inactive) | > 100 µM (inactive) | 4.73 µM (inactive) | 4.06 µM (inactive) | 5.01 µM (inactive)
5 | CC(C)[Si](OC1=C(C(=O)N(C)c2ccccc2Cl)CCCCC1)(C(C)C)C(C)C | > 100 µM (inactive) | > 100 µM (inactive) | > 100 µM (inactive) | – | > 100 µM (inactive) | > 100 µM (inactive) | > 100 µM (inactive) | > 100 µM (inactive) | > 100 µM (inactive) | > 100 µM (inactive) | – | > 100 µM (inactive) | > 100 µM (inactive) | – | > 100 µM (inactive) | > 100 µM (inactive) | – | > 100 µM (inactive) | –
6 | CC1CC/C(=C\c2ccc(Cl)cc2)C2OC(N)=C(C#N)C(c3ccc(Cl)cc3)=C12 (centres undefined) | – | 15.2 µM (inactive) | 5.55 µM (inactive) | 2.88 µM (inactive) | 13 µM (inactive) | 13.6 µM (inactive) | – | 11.7 µM (inactive) | – | 16.1 µM (inactive) | 10.8 µM (inactive) | 13.7 µM (inactive) | 20.4 µM (inactive) | – | 0.442 µM (active) | 25.7 µM (inactive) | 16.2 µM (inactive) | 12.5 µM (inactive) | 15.6 µM (inactive)
7 | CCOC(=O)/C(C#N)=C/c1ccc(SCc2ccco2)c([N+](=O)[O-])c1 | > 100 µM (inactive) | > 100 µM (inactive) | > 100 µM (inactive) | > 100 µM (inactive) | > 100 µM (inactive) | > 100 µM (inactive) | > 100 µM (inactive) | > 100 µM (inactive) | > 100 µM (inactive) | > 100 µM (inactive) | > 100 µM (inactive) | > 100 µM (inactive) | > 100 µM (inactive) | > 100 µM (inactive) | – | – | 57 µM (inactive) | > 100 µM (inactive) | > 100 µM (inactive)
8 | CCCCCCCCCCCCCCCCCCNC(=O)C(N)Cc1ccc(OCc2ccccc2)cn1 (centres undefined) | 20.3 µM (inactive) | 23.4 µM (inactive) | 22.6 µM (inactive) | 15.7 µM (inactive) | 17.4 µM (inactive) | 16.8 µM (inactive) | 15.4 µM (inactive) | 25.4 µM (inactive) | 24 µM (inactive) | 24.1 µM (inactive) | 17.1 µM (inactive) | 27.7 µM (inactive) | 19.8 µM (inactive) | – | 20.4 µM (inactive) | 15.4 µM (inactive) | 16.7 µM (inactive) | 15.4 µM (inactive) | 21.6 µM (inactive)
9 | CN1CCC2(CC1)SSC1(CCN(C)CC1)S2 | – | 23.9 µM (inactive) | – | > 100 µM (inactive) | 2.35 µM (inactive) | > 100 µM (inactive) | > 100 µM (inactive) | – | > 100 µM (inactive) | > 100 µM (inactive) | > 100 µM (inactive) | > 100 µM (inactive) | 69.3 µM (inactive) | > 100 µM (inactive) | – | – | 46.7 µM (inactive) | 80.2 µM (inactive) | > 100 µM (inactive)
10 | O=C1C=Cc2c1csc2Br | – | 27.4 µM (inactive) | 87.5 µM (inactive) | – | 25.5 µM (inactive) | 33 µM (inactive) | > 100 µM (inactive) | 71 µM (inactive) | > 100 µM (inactive) | 63.1 µM (inactive) | > 100 µM (inactive) | > 100 µM (inactive) | 70.3 µM (inactive) | 10.6 µM (inactive) | 54.5 µM (inactive) | 65 µM (inactive) | 35.3 µM (inactive) | 64.7 µM (inactive) | 41.2 µM (inactive)
11 | COc1cccc(N(CN2C(=O)CCC2C(=O)O)C(C)=O)c1 (centres undefined) | > 100 µM (inactive) | – | > 100 µM (inactive) | > 100 µM (inactive) | > 100 µM (inactive) | > 100 µM (inactive) | > 100 µM (inactive) | > 100 µM (inactive) | > 100 µM (inactive) | > 100 µM (inactive) | > 100 µM (inactive) | > 100 µM (inactive) | > 100 µM (inactive) | > 100 µM (inactive) | > 100 µM (inactive) | > 100 µM (inactive) | > 100 µM (inactive) | > 100 µM (inactive) | > 100 µM (inactive)
12 | O=[N+]([O-])c1cc(Cl)cnc1Br | 17.1 µM (inactive) | 3.18 µM (inactive) | 4.19 µM (inactive) | 3.44 µM (inactive) | 1.22 µM (inactive) | 5.52 µM (inactive) | 3.95 µM (inactive) | 2.38 µM (inactive) | 3.4 µM (inactive) | 3.33 µM (inactive) | – | 2.92 µM (inactive) | 9.71 µM (inactive) | – | 3.1 µM (inactive) | 3.22 µM (inactive) | 1.93 µM (inactive) | 1.34 µM (inactive) | 7.16 µM (inactive)
13 | O=[N+]([O-])c1ccccc1S(=O)(=O)c1cccc2c1NCCC2 | > 100 µM (inactive) | 32.1 µM (inactive) | 99.3 µM (inactive) | 24 µM (inactive) | 39.1 µM (inactive) | – | 44.2 µM (inactive) | 40.6 µM (inactive) | 31.5 µM (inactive) | 45.6 µM (inactive) | 21.6 µM (inactive) | 86.7 µM (inactive) | 65.2 µM (inactive) | 48.2 µM (inactive) | – | > 100 µM (inactive) | 24.2 µM (inactive) | 60.8 µM (inactive) | 51.1 µM (inactive)
14 | COC(=O)C1(CCC(C)=O)CCCCCC1=O (centres undefined) | > 100 µM (inactive) | > 100 µM (inactive) | > 100 µM (inactive) | – | > 100 µM (inactive) | > 100 µM (inactive) | > 100 µM (inactive) | > 100 µM (inactive) | > 100 µM (inactive) | > 100 µM (inactive) | > 100 µM (inactive) | > 100 µM (inactive) | > 100 µM (inactive) | > 100 µM (inactive) | > 100 µM (inactive) | > 100 µM (inactive) | > 100 µM (inactive) | > 100 µM (inactive) | –
15 | CC#CS(=O)(=O)c1ccccc1 | 15.4 µM (inactive) | 8.45 µM (inactive) | 18.6 µM (inactive) | 1.8 µM (inactive) | 5.45 µM (inactive) | 5.2 µM (inactive) | 17.5 µM (inactive) | 1.63 µM (inactive) | 3.56 µM (inactive) | 3.13 µM (inactive) | 14.2 µM (inactive) | 6.32 µM (inactive) | 14.2 µM (inactive) | – | 2.33 µM (inactive) | 4.92 µM (inactive) | 3.24 µM (inactive) | 11.2 µM (inactive) | 17.2 µM (inactive)
16 | COC(=O)C1=CC(=O)OC1(OO)c1ccc(Br)cc1 (centres undefined) | – | > 100 µM (inactive) | > 100 µM (inactive) | 40.3 µM (inactive) | 48.5 µM (inactive) | > 100 µM (inactive) | > 100 µM (inactive) | > 100 µM (inactive) | > 100 µM (inactive) | > 100 µM (inactive) | > 100 µM (inactive) | > 100 µM (inactive) | > 100 µM (inactive) | 55.8 µM (inactive) | > 100 µM (inactive) | > 100 µM (inactive) | > 100 µM (inactive) | 44.3 µM (inactive) | –
